According to patent US10849893B2 (Athenex HK Innovative Limited, priority 2018, dated 2020):
Several values for one entry are separate records, joined by “and”; a condition that tells them apart may be missing. Equal entries are not always repeated. Where two headings read alike, the source gives them in different places.

Legend:
[1] = Two phase 1 studies of docetaxel capsules administered orally in combination with HM30181A; assay type: in vivo, human
[2] = for Reported half-life: individual values, sampling to 168 h, LLOQ 0.2 ng/mL
[3] = male, human, in vivo, po, 75 mg/m2
[4] = mean oral (75 mg/m^2) as % of mean IV (60 mg/m^2)
[5] = oral 35 mg/m^2 with Compound A, Mean, N=4
[6] = oral 35 mg/m^2 with Compound A, individual subjects
[7] = oral 75 mg/m^2 with Compound A, Mean, N=3
[8] = oral 75 mg/m^2 with Compound A, individual subjects
[9] = oral 75 mg/m^2 with Compound A, individual subjects, listed as Docetaxel
[10] = oral 150 mg/m^2 with Compound A, individual subjects
[11] = oral 225 mg/m^2 with Compound A, Mean, N=3
[12] = oral 225 mg/m^2 with Compound A, individual subjects
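For AUC % Extrapobs in this document: noncompartmental pharmacokinetic analysis in subjects with solid tumors, using linear-up log-down interpolation, with terminal slope time points picked automatically by the software.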
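For AUC0-12 in this document: noncompartmental pharmacokinetic analysis in subjects with solid tumors, using linear-up log-down interpolation, with terminal slope time points picked automatically by the software.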
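For Reported half-life in this document: noncompartmental pharmacokinetic analysis in subjects with solid tumors, using linear-up log-down interpolation, with terminal slope time points picked automatically by the software.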
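For docetaxel plasma concentration vs in vitro target IC50 of 5 nM (4 ng/mL) in this document: noncompartmental pharmacokinetic analysis in subjects with solid tumors, using linear-up log-down interpolation, with terminal slope time points picked automatically by the software.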

## CC(=O)O[C@@]12CO[C@@H]1C[C@H](O)[C@@]1(C)C(=O)[C@H](O)C3=C(C)[C@@H](OC(=O)[C@H](O)[C@@H](NC(=O)OC(C)(C)C)c4ccccc4)C[C@@](O)([C@@H](OC(=O)c4ccccc4)[C@H]21)C3(C)C [docetaxel, (2aR,4S,4aS,6R,9S,11S,12S,12aR,12b S)-12b-acetoxy-9-(((2R,3S)-3-((tert-butoxycarbonyl)amino)-2-hydroxy-3-phenylpropanoyl)oxy)-4,6,11-trihydroxy-4a,8,13,13-tetramethyl-5-oxo-2a,3,4,4a,5,6,9,10,11,12,12a, 12b-dodecahydro-1H-7,11-methanocyclodeca[3,4]benzo[1,2-b]oxet-12-yl benzoate]
clinical; male, human, in vivo
  Tmax Mean %: 207.55%
clinical; male, human, in vivo, iv
  Average Time above Target (0 to last time point measured above 4 ng/ml): 40.9 h
  Dose Normalized AUC: 27.17 ng·h/mL
clinical; male, human, in vivo, iv, 60 mg/m2, AUC0-24
  AUC(0-t): 1350 to 1970 ng·h/mL
clinical; male, human, in vivo, iv, 60 mg/m2, AUC0-inf
  AUC(0-inf): 1970 ng·h/mL
clinical; male, human, in vivo, iv, 60 mg/m2, AUC0-t
  AUC(0-t): 1890 ng·h/mL
clinical; male, human, in vivo, iv, 60 mg/m2, Cmax
  Cmax: 1020 to 1570 ng/mL
clinical; male, human, in vivo, iv, 60 mg/m2, Tmax
  Tmax: 0.88 h
clinical; male, human, in vivo, iv, Reported half-life
  half-life: 17.4 h
clinical; male, human, in vivo, po
  Average Time above Target (0 to last time point measured above 4 ng/ml): 20.5 h
  Dose Normalized AUC: 23.33 ng·h/mL
clinical; [3]
  AUC(0-inf): 476 ng·h/mL
  half-life: 21.3 h
clinical; male, human, in vivo, po, 75 mg/m2, AUC0-24
  AUC(0-t): 313 to 336 ng·h/mL
clinical; male, human, in vivo, po, 75 mg/m2, AUC0-inf
  AUC(0-inf): 478 ng·h/mL
clinical; male, human, in vivo, po, 75 mg/m2, AUC0-t
  AUC(0-t): 395 ng·h/mL
clinical; male, human, in vivo, po, 75 mg/m2, Reported half-life
  half-life: 16.4 h
clinical; male, human, in vivo, po, 75 mg/m2, Tmax
  Tmax: 1.83 h
clinical; [4]
  Cmax Mean %: 7.87%
  t1/2 Mean %: 104.60%
[1]; human, plasma, iv, 75 mg/m2, IV 75 mg/m^2
  AUC: 2420 ng·h/mL
[1]; human, plasma, po, oral 35 mg/m^2 with HM30181A 15 mg
  AUC: 248 ng·h/mL
[1]; human, plasma, po, oral 75 mg/m^2 with HM30181A 15 mg
  AUC: 692 ng·h/mL
[1]; human, plasma, po, oral 150 mg/m^2 with HM30181A 15 mg
  AUC: 888 ng·h/mL
[1]; human, plasma, po, oral 225 mg/m^2 with HM30181A 15 mg
  AUC: 1400 ng·h/mL
[1]; human, plasma, oral 75 mg/m^2 with HM30181A 15 mg, read-out: Individual F %
  bioavailability: 20 to 31%
[1]; human, plasma, oral capsules in combination with HM30181A
  Tmax: 3 to 4 h
[1]; human, plasma, oral capsules in combination with HM30181A, read-out: terminal phase half-life (converted)
  half-life: ~56 h
[1]; oral with HM30181A vs IV
  Cmax as % of that observed after IV administration: 9.5-13%
[2]; individuals administered 35 or 75 mg/m^2 oral docetaxel
  docetaxel plasma concentration vs in vitro target IC50 of 5 nM (4 ng/mL): > 4 ng/mL
[2]; oral 35 mg/m^2
  Reported half-life: 35 mg/m^2: 3.4 h, and 19.1 h and 65.3 h
[2]; oral 35 mg/m^2 SD
  Average Time above Target (0 to last time point measured above 4 ng/ml): 7.5 h
[2]; oral 35 mg/m^2 with Compound A
  Dose Normalized AUC: 39.97
[2]; [5]
  AUC % Extrapobs: 7.51%
  Tmax: 1.50 h
[2]; [6]
  AUC0-12: 145 ng·h/mL and 39.8 ng·h/mL and 198 ng·h/mL and 353 ng·h/mL
  AUC0-24: 178 ng·h/mL and 46.1 ng·h/mL and 227 ng·h/mL and 392 ng·h/mL
  AUC0-48: 218 ng·h/mL and 46.1 ng·h/mL and 257 ng·h/mL and 440 ng·h/mL
  AUC % Extrapobs: 7.76% and 11.4% and 3.39% and 7.45%
  AUCINF—obs: 259 ng·h/mL and 44.9 ng·h/mL and 279 ng·h/mL and 599 ng·h/mL
  Cmax: 38.0 ng/mL and 73.0 ng/mL and 157 ng/mL and 8.59 ng/mL
  Tmax: 2.00 h and 1.00 h
  t1/2: 22.8 h and 3.40 h and 19.1 h and 65.3 h
[2]; oral 35 mg/m^2 with Compound A, individual subjects by cancer diagnosis
  AUC0-24: 170 to 392 ng·h/mL
[2]; oral 35 mg/m^2 with Compound A, individual subjects by cancer diagnosis, listed as Docetaxel
  AUC0-24: 170 ng·h/mL and 227 ng·h/mL and 392 ng·h/mL
[2]; oral 75 mg/m^2
  Reported half-life: 62.4 h and 45.8 h
[2]; oral 75 mg/m^2 SD
  Average Time above Target (0 to last time point measured above 4 ng/ml): 21.5 h
[2]; oral 75 mg/m^2 with Compound A
  Dose Normalized AUC: 38.23
[2]; [7]
  AUC0-12: 512 ng·h/mL
  AUC0-24: 598 ng·h/mL
  AUC % Extrapobs: 3.89%
  Tmax: 2.00 h
[2]; [8]
  Cmax: 81.6 to 190 ng/mL
  Tmax: 2.00 h
[2]; oral 75 mg/m^2 with Compound A, individual subjects by cancer diagnosis
  AUC0-24: 304 to 1030 ng·h/mL
[2]; oral 75 mg/m^2 with Compound A, individual subjects by cancer diagnosis, listed as Docetaxel
  AUC0-24: 461 ng·h/mL and 304 ng·h/mL and 1030 ng·h/mL
[2]; [9]
  AUC0-12: 390 ng·h/mL and 270 ng·h/mL and 875 ng·h/mL
  AUC0-24: 461 ng·h/mL and 304 ng·h/mL and 1030 ng·h/mL
  AUC0-48: 543 ng·h/mL and 334 ng·h/mL and 1150 ng·h/mL
  AUC % Extrapobs: 4.31% and 4.87% and 2.50%
  AUCINF—obs: 690 ng·h/mL and 409 ng·h/mL and 1350 ng·h/mL
  Cmax: 165 ng/mL and 81.6 ng/mL and 190 ng/mL and 270 ng/mL
  t1/2: 62.1 h and 45.8 h
[2]; oral 150 mg/m^2
  Reported half-life: 53.3 h and 63.3 h
[2]; oral 150 mg/m^2 SD
  Average Time above Target (0 to last time point measured above 4 ng/ml): 15.5 h
[2]; oral 150 mg/m^2 with Compound A
  Dose Normalized AUC: 26.70
[2]; [10]
  AUC0-12: 898 ng·h/mL and 650 ng·h/mL
  AUC0-24: 1050 ng·h/mL and 720 ng·h/mL and 490 ng·h/mL
  AUC0-48: 1150 ng·h/mL and 775 ng·h/mL and 538 ng·h/mL
  AUC % Extrapobs: 5.59% and 2.53% and 5.32%
  AUCINF—obs: 1380 ng·h/mL and 876 ng·h/mL and 673 ng·h/mL
  Cmax: 136 ng/mL and 112 ng/mL
  Tmax: 2.00 h and 4.00 h
  t1/2: 63.3 h
[2]; oral 150 mg/m^2 with Compound A, individual subjects by cancer diagnosis
  AUC0-24: 490 to 1050 ng·h/mL
[2]; oral 150 mg/m^2 with Compound A, individual subjects by cancer diagnosis, listed as Docetaxel
  AUC0-24: 1050 ng·h/mL and 720 ng·h/mL and 490 ng·h/mL
[2]; [11]
  AUC0-12: 618 ng·h/mL
  AUC % Extrapobs: 4.93%
  Cmax: 114 ng/mL
  Tmax: 1.00 h
[2]; [12]
  AUC0-12: 835 ng·h/mL and 380 ng·h/mL and 637 ng·h/mL
  AUC0-24: 416 ng·h/mL and 974 ng·h/mL
  AUC0-48: 1100 ng·h/mL and 443 ng·h/mL and 1200 ng·h/mL
